We go through seven compounds from patent publication US8084602B2, “Porphyrin derivatives and their use in photodynamic therapy” (Destiny Pharma Limited, priority 2002, dated 2011).

Read-outs that look alike come from different tables or passages of the source.

Test [1] relates to Staphylococcus aureus (methicillin-resistant strain ATTC BAA-44). Put plainly: Initial screening: growth inhibition after white light illumination. The format is cell-based. The settings on record: for Growth inhibition (%): S. aureus, 3 μM, 5 min incubation; for inhibition at 3 µM: Staphylococcus aureus. The method, then:
(§1) The toxic effects of exemplary compounds of the invention against two bacterial strains, the Gram negative bacterium Escherichia coli (strain ATCC 25922) and the Gram positive bacterium Staphylococcus aureus (methicillin-resistant strain ATTC BAA-44), were evaluated by measuring the extent of growth inhibition (bacteriostatic effect) and growth […] (cytocidal effect) in the dark and upon light exposure. Initial compound screening was undertaken using white light [390-740 nm] (150 mW/cm^2) for various timepoints of a concentration of 3 μM (see Table 1). Further experiments were undertaken on those compounds identified from this initial screen using a light source emitting light at a wavelength between 417-420 nm at 15.2 mW/cm^2, 13.68 J/cm^2 (Waldmann Eclairage SA, France) (see Table 20.
(§2) The following protocol was used for the initial screening of the exemplary compounds (Table 1) (see Reddi et al., 2002, Photochem. Photobiol. 75(5):462-470): • (i) E. coli and S. aureus cells were grown overnight on brain heart infusion agar, resuspended in brain heart infusion broth, harvested by centrifugation (3000 g for 15 minutes) and washed once with phosphate buffered saline (PBS) at pH 7.4 consisting 2.7 mM KCl and 0.14 M NaCl. • (ii) The cells were then resuspended in PBS to an optical density at 650 nm of 0.7, which corresponds to a density of 10^8 to 10^9 cells/ml. • (iii) Next, the cells were incubated in PBS in the dark for 5 minutes with 3.0 μM of the compound to be tested. • (iv) After dark incubation, cells were illuminated with white light (wavelength: 390 to 740 nm) (150 mW/cm^2) for up to 30 minutes. During illumination, the cells were kept at 37° C. and magnetically stirred. • (v) Finally, treated and untreated (control) cells were diluted in brain heart infusion broth and maintained at […] while the absorbance of the suspension at 650 nm was monitored at predetermined time points for determining growth curves.
(§3) The percent of growth inhibition in the treated cells was calculated by the following equation: [1−(Ax−A0)/(Ac−A0)]×100 where Ax Ac are the absorbances measured after 3 hours incubation, for the treated and control cell suspensions, respectively, and A0 represents the initial absorbance.

Test [2] has as its system Escherichia coli (strain ATCC 25922). Described as above. The format is cell-based. The conditions noted are these: for Growth inhibition (%): E. coli, 3 μM, 5 min incubation; for inhibition at 3 µM: Escherichia coli. On the procedure: as §1, §2, §3
The mark [3] stands for this setting: BAA44, 5 min, read-out: Growth inhibition (%), S. aureus, 5 min incubation, illumination time 5 min.
Setting [4] is: BAA44, read-out: Growth inhibition (%), S. aureus, 5 min incubation, illumination time 0 min.
Where [5] appears, read: BAA44, read-out: Growth inhibition (%), S. aureus, 5 min incubation, illumination time 1 min.
[6] abbreviates: BAA44, read-out: Growth inhibition (%), S. aureus, 5 min incubation, illumination time 10 min.
Setting [7] is: BAA44, read-out: Growth inhibition (%), S. aureus, 5 min incubation, illumination time 15 min.
Setting [8] is: BAA44, read-out: Growth inhibition (%), S. aureus, 5 min incubation, illumination time 30 min.

Consider “5,10,15-tris-[4-(3-Trimethyl-ammoniopropyloxy)-phenyl]-20-(4-tetradecyloxy-phenyl)-porphyrin trichloride [Compound 36, reference compound]”, for which the “Growth inhibition (%)” value in test [1] (illumination time 0 min) turned out to be 22%; in test [1] (illumination time 1 min) it was 96%; in test [1] (illumination time 5 min) it was 100%; in test [1] (illumination time 10 min), 100%; in test [1] (illumination time 15 min) it was 100%; in test [1] (illumination time 30 min), 100%. In addition, the “Growth inhibition (%)” value in test [2] (illumination time 0 min) is recorded as 6%; in test [2] (illumination time 1 min) it was 56%; in test [2] (illumination time 5 min), 84%; in test [2] (illumination time 10 min) it was 90%; in test [2] (illumination time 15 min), 92%; in test [2] (illumination time 30 min) it was 95%.

In the case of “5,10,15-tris[3-(3-Trimethyl-ammoniopropyloxy)-phenyl]-20-(3-undecyloxy-phenyl)-porphyrin trichloride [Compound 33, reference compound]”, the “Growth inhibition (%)” value in test [1] (illumination time 0 min) is given as 22%; in test [1] (illumination time 1 min), 57%; in test [1] (illumination time 5 min) it was 99%; in test [1] (illumination time 10 min), 100%; in test [1] (illumination time 15 min), 100%; in test [1] (illumination time 30 min) it was 100%. In addition, the “Growth inhibition (%)” value in test [2] (illumination time 0 min) is 6%; in test [2] (illumination time 1 min) it was 10%; in test [2] (illumination time 5 min), 25%; in test [2] (illumination time 10 min), 53%; in test [2] (illumination time 15 min) it was 67%; in test [2] (illumination time 30 min), 78%.

Consider “5,15-bis-[3-(3-Trimethylammmonio-proploxy)-phenyl]-10-undecyl-porphyrin dichloride [Compound 28]”, for which the “Growth inhibition (%)” value in test [1] (illumination time 0 min) stood at 15%; in test [1] (illumination time 1 min), 91%; in test [1] (illumination time 5 min), 100%; in test [1] (illumination time 10 min), 100%; in test [1] (illumination time 15 min) it was 100%; in test [1] (illumination time 30 min), 100%. In addition, the “Growth inhibition (%)” value in test [2] (illumination time 0 min) was found to be 4%; in test [2] (illumination time 1 min) it was 21%; in test [2] (illumination time 5 min) it was 60%; in test [2] (illumination time 10 min) it was 73%; in test [2] (illumination time 15 min), 81%; in test [2] (illumination time 30 min), 92%.

Regarding “5-[4-(3-Dimethyldecyl-ammoniopropyloxy)-phenyl]-15-{4-[3-dimethyl-(3-dimethylaminopropyl)-ammoniopropyloxy]-phenyl}-porphyrin dichloride [Compound 32]”, the “Growth inhibition (%)” value in test [1] (illumination time 0 min) is given as 23%; in test [1] (illumination time 1 min), 100%; in test [1] (illumination time 5 min) it was 100%; in test [1] (illumination time 10 min), 100%; in test [1] (illumination time 15 min), 100%; in test [1] (illumination time 30 min), 100%. Besides, the “Growth inhibition (%)” value in test [2] (illumination time 0 min) turned out to be 3%; in test [2] (illumination time 1 min), 10%; in test [2] (illumination time 5 min), 16%; in test [2] (illumination time 10 min) it was 22%; in test [2] (illumination time 15 min), 22%; in test [2] (illumination time 30 min), 38%.

“5-{4-[3-Dimethyl-(3-trimethylammonio-propyl)-ammonio-propyloxy]-phenyl}-15-(4-dodecyloxy-phenyl)-porphyrin dichloride [Compound 31]”: the “Growth inhibition (%)” value in test [1] (illumination time 0 min) is listed as 9%; in test [1] (illumination time 1 min) it was 28%; in test [1] (illumination time 5 min), 38%; in test [1] (illumination time 10 min), 78%; in test [1] (illumination time 15 min) it was 82%; in test [1] (illumination time 30 min) it was 83%.

Usually inhibition stands for the relative decrease from the control value, in per cent. `CCCCCCCCCCCOc1ccc(-c2c3nc(c(-c4ccc(OCCC[N+](CC)(CC)CC)cc4)c4ccc([nH]4)c(-c4ccc(OCCC[N+](CC)(CC)CC)cc4)c4nc(c(-c5ccc(OCCC[N+](CC)(CC)CC)cc5)c5ccc2[nH]5)C=C4)C=C3)cc1` [Compound 16, 5,10,15-tris-[4-(3-Triethylammonio-propyloxy)-phenyl]-20-(4-undecyloxy-phenyl)-porphyrin trichloride, reference compound]: the inhibition at 3 µM in test [1] (setting [3]) stood at 100%; in test [1] (setting [4]), 12%; in test [1] (setting [5]), 97%; in test [1] (setting [6]), 100%; in test [1] (setting [7]), 100%; in test [1] (setting [8]), 100%. Moreover, the inhibition at 3 µM is 92% in test [2] (ATCC25922, 5 min, read-out: Growth inhibition (%), E. coli, 5 min incubation, illumination time 5 min); 8% in test [2] (ATCC25922, read-out: Growth inhibition (%), E. coli, 5 min incubation, illumination time 0 min); 34% in test [2] (ATCC25922, read-out: Growth inhibition (%), E. coli, 5 min incubation, illumination time 1 min); 99% in test [2] (ATCC25922, read-out: Growth inhibition (%), E. coli, 5 min incubation, illumination time 10 min); 100% in test [2] (ATCC25922, read-out: Growth inhibition (%), E. coli, 5 min incubation, illumination time 15 min); 100% in test [2] (ATCC25922, read-out: Growth inhibition (%), E. coli, 5 min incubation, illumination time 30 min).

For the compound `CCCCCCCCCCCOc1ccc(-c2c3nc(c(-c4ccc(OCCCCCCCCCCC)cc4)c4ccc([nH]4)c(-c4ccc(OCCC[N+](C)(C)C)cc4)c4nc(c(-c5ccc(OCCC[N+](C)(C)C)cc5)c5ccc2[nH]5)C=C4)C=C3)cc1` [Compound 29, 5,10-bis-[4-(3-Trimethylammonio-propyloxy)-phenyl]-15,20-bis-(4-undecyloxy-phenyl)-porphyrin dichloride, reference compound], the inhibition at 3 µM in test [1] (setting [3]) was 49%; in test [1] (setting [4]), 14%; in test [1] (setting [5]), 43%; in test [1] (setting [6]), 53%; in test [1] (setting [7]), 55%; in test [1] (setting [8]), 55%.
